These results are taken from patent US8207154B2, “Catatonic bacteriochlorophyll derivatives” (Yeda Research and Development Co., Ltd., priority 2005, dated 2012).

The test system of this assay is H5V cells. In words: Phototoxicity assay (PDT efficacy at two incubation times), neutral red survival. Type of assay: cell-based, mouse. As to conditions: for IC50: then 10 min illumination, 12 J/cm^2. As for the experimental part:
H5V cells (40×10^3/well) were cultured in 96-well plates for 24 h to ˜80% confluence. To determine phototoxicity, the culture medium was replaced with 100 μl/well medium, in the absence or presence of 10^−8 to 10^−6 M sensitizer, and incubated in the dark for 15 min or 3 h in the culture incubator. The plates (PDT group) were then placed in the light field at room temperature and illuminated from the bottom for 10 min (800>λ>650 nm, 12 J/cm^2). After illumination, the medium was changed to fresh culture medium. The cultures were then placed in the culture incubator and cell survival was determined 24 h later, using the neutral red survival assay described below.
Following 24 h post PDT the culture medium in the wells was replaced with 100 μl fresh medium containing 40 μg/ml neutral red. The plate was incubated for 1.5 h in a dark culture incubator. The medium was aspirated and the cells washed with 100 μl of solution containing 1% CaCl2 and 0.5% formaldehyde, which removes the unincorporated dye and fixes the cells to the substratum. The dye was then extracted from the cells into the supernatant upon addition of 100 μl 1% glacial acetic acid in 50% ethanol. After 1-2 min at room temperature, the optical density of the wells was determined in a microplate spectrophotometer using a 570 nm filter. After subtraction of assay blanks, net optical density was computed as the average value of triplicate determinations. Cell survival was calculated as the percent of the dye accumulated in the untreated control. To determine cell survival data was plotted against sensitizer concentration. These curves were then used to calculated LD50 values.
Following synthesis, the compounds described in the Examples 23 to 75 above were purified, divided into equal aliquots and lyophilized for storage (desiccated at −20° C.). The exact material content was determined by HPLC-diode array detection, and the PDT efficacy was evaluated at two incubation times as described in the experimental section.

[1] abbreviates: 15 min incubation in the dark, read-out: IC50 15 min.
[2] abbreviates: 3 h incubation in the dark, read-out: IC50 3 hours.

The structures appear in SMILES notation. Like-named read-outs stand apart in the source and are kept apart here.

For `CC[C@H]1C2=NC(=Cc3c(C(C)=O)c(C)c4[n]3[Pd][n]3c(c(C)c(C(=O)NCCN)c3=C(CC(=O)OC)C3=NC(=C4)[C@@H](C)[C@@H]3CCC(=O)NCCN)=C2)[C@@H]1C` [Compound 10, Palladium 3^1-oxo-15-methoxycarbonylmethyl-Rhodobacteriochlorin-13^1, 17^3-di(2-aminoethyl)amide], the IC50 (commonly the point on the concentration scale where inhibition reaches its midpoint) reads like this: under setting [1], 740 nM; under setting [2], 240 nM.

Consider `CC[C@H]1C2=NC(=Cc3c(C(C)=O)c(C)c4[n]3[Pd][n]3c(c(C)c(C(=O)NCCN(C)C)c3=C(CC(=O)OC)C3=NC(=C4)[C@@H](C)[C@@H]3CCC(=O)O)=C2)[C@@H]1C` [Compound 25, Palladium 3^1-oxo-15-methoxycarbonylmethyl-Rhodobacteriochlorin-13^1-(2-N^2-dimethylaminoethyl)amide], for which the IC50 runs as follows: under setting [1], 1100 nM; under setting [2], 750 nM.

`CC[C@H]1C2=NC(=Cc3c(C(C)=O)c(C)c4[n]3[Pd][n]3c(c(C)c(C(=O)NCCCN(C)C)c3=C(CC(=O)OC)C3=NC(=C4)[C@@H](C)[C@@H]3CCC(=O)O)=C2)[C@@H]1C` [Compound 26, Palladium 3^1-oxo-15-methoxycarbonylmethyl-Rhodobacteriochlorin-13^1-(3-N^2-dimethylaminopropyl)amide]: the IC50 by setting is: under setting [1], 1000 nM; under setting [2], 450 nM.

Take `CC[C@H]1C2=NC(=Cc3c(C(C)=O)c(C)c4[n]3[Pd][n]3c(c(C)c(C(=O)NCCNCCN)c3=C(CC(=O)OC)C3=NC(=C4)[C@@H](C)[C@@H]3CCC(=O)O)=C2)[C@@H]1C` [Compound 27, Palladium 3^1-oxo-15-methoxycarbonylmethyl-Rhodobacteriochlorin-13^1-(2-[(2-aminoethyl)amino]ethyl)amide]: the IC50 reads like this: under setting [1], 1500 nM; under setting [2], 450 nM.

In the case of `CC[C@H]1C2=NC(=Cc3c(C(C)=O)c(C)c4[n]3[Pd][n]3c(c(C)c(C(=O)NCCN(CCN)CCN)c3=C(CC(=O)OC)C3=NC(=C4)[C@@H](C)[C@@H]3CCC(=O)O)=C2)[C@@H]1C` [Compound 28, Palladium 3^1-oxo-15-methoxycarbonylmethyl-Rhodobacteriochlorin-13^1-([2-bis(2-aminoethyl)amino]ethyl)amide], the IC50 was 1300 nM under setting [1] and 380 nM under setting [2].

For the compound `CC[C@H]1C2=NC(=Cc3c(C(C)=O)c(C)c4[n]3[Pd][n]3c(c(C)c(C(=O)NCCN5CCOCC5)c3=C(CC(=O)OC)C3=NC(=C4)[C@@H](C)[C@@H]3CCC(=O)O)=C2)[C@@H]1C` [Compound 29, Palladium 3^1-oxo-15-methoxycarbonylmethyl-Rhodobacteriochlorin-13^1-(2-morpholino-N-ethyl)amide], the IC50 amounted to 1900 nM under setting [1] and 1900 nM under setting [2].

Take `CC[C@H]1C2=NC(=Cc3c(C(C)=O)c(C)c4[n]3[Pd][n]3c(c(C)c(C(=O)NCCN5CCNCC5)c3=C(CC(=O)OC)C3=NC(=C4)[C@@H](C)[C@@H]3CCC(=O)O)=C2)[C@@H]1C` [Compound 30, Palladium 3^1-oxo-15-methoxycarbonylmethyl-Rhodobacteriochlorin-13^1-(2-piperazino-N-ethyl)amide]: the IC50 stood at 1700 nM under setting [1] and 610 nM under setting [2].

For the compound `CC[C@H]1C2=NC(=Cc3c(C(C)=O)c(C)c4[n]3[Pd][n]3c(c(C)c(C(=O)NCCNCCN(CC)CC)c3=C(CC(=O)OC)C3=NC(=C4)[C@@H](C)[C@@H]3CCC(=O)O)=C2)[C@@H]1C` [Compound 31, Palladium 3^1-oxo-15-methoxycarbonylmethyl-Rhodobacteriochlorin-13^1-(2-[(2-N^2-diethylaminoethyl)amino]ethyl)amide], the IC50 is, setting by setting: under setting [1], 2600 nM; under setting [2], 600 nM.

As to `CC[C@H]1C2=NC(=Cc3c(C(C)=O)c(C)c4[n]3[Pd][n]3c(c(C)c(C(=O)NCCCNCCCN)c3=C(CC(=O)OC)C3=NC(=C4)[C@@H](C)[C@@H]3CCC(=O)O)=C2)[C@@H]1C` [Compound 32, Palladium 3^1-oxo-15-methoxycarbonylmethyl-Rhodobacteriochlorin-13^1-(3-[(3-aminopropyl)amino]propyl)amide], the IC50 is, setting by setting: under setting [1], 600 nM; under setting [2], 250 nM. The “PDT activity relative to compound 24” value (at both incubation times) is on record as 4-5 times.
